Results on one compound are retold here after ChEMBL document CHEMBL4840379, “RIBOTACs: Small Molecules Selectively Destroy Cancer-Associated RNA” (ACS Med Chem Lett, 2021).

In series [1] the test system is A-375. Kind of series: Antiinvasive activity in human A-375 cells assessed as decrease in pre-miR-21 overexpression induced invasion at 500 nM incubated for 24 hrs […]. The class given is functional, cell-based.
Series [2] deals with A549. Description: Antiinvasive activity in human A549 cells assessed as decrease in pre-miR-21 overexpression induced invasion at 500 nM incubated for 24 hrs […]. The class given is functional, cell-based.
In series [3] the test system is microRNA 21. Description: RIBOTAC activity at Pre-miR-21 RNA/RNase L in human MDA-MB-231 cells assessed as decrease in pre-miR-21 level by measuring cleaved pre-miR-21 level at 500 nM incubated for 24 hrs […]. In kind it is cell-based.
Series [4] is described as follows: Drug uptake in human MDA-MB-231 cells assessed as compound level at 500 nM incubated for 24 hrs. The note with it: mda-mb-231, 24 h, 0.5 µM. In kind it is ADME, cell-based.
Series [5] can be described thus: Turnovers, ratio of RIBOTAC activity at Pre-miR-21 RNA/RNase L in human MDA-MB-231 cells assessed as decrease in pre-miR-21 level by measuring cleaved pre-miR-21 level at 500 nM incubated for 24 hrs […] to drug concentration in human MDA-MB-231 cells. In kind it is functional.

Structures are written as SMILES. Calls of active or inactive are those of the source. The rule behind the calls is not given here.

`CCCN(CC(=O)N(CCC)CC(=O)N(CCC)CC(=O)N(CC(=O)NCCOCCOCCOCCOc1ccc(/C=C2\SC(Nc3ccccc3)=C(C(=O)OCC)C2=O)cc1O)Cc1cn(CCCNC(=O)CCCOc2ccc(-c3nc4ccc(-c5ccc(N6CCN(C)CC6)cc5)cc4[nH]3)cc2)nn1)C(=O)CN(Cc1cn(CCCNC(=O)CCCOc2ccc(-c3nc4cc(-c5ccc(N6CCN(C)CC6)cc5)ccc4[nH]3)cc2)nn1)C(C)=O`: the outcome in series [1] and in series [2] was Active. In series [3], the Activity came out at 68 pmol. In series [4], the Drug uptake is 2.6 pmol. Also, the Ratio in series [5] is 26.
